{"source": "paper PMC5522071", "about": "“Preclinical development of G1T38: A novel, potent and selective inhibitor of cyclin dependent kinases 4/6 for use as an oral antineoplastic in patients with CDK4/6 sensitive tumors” (Oncotarget, 2017)", "key": {"[1]": {"test_system": "RNA polymerase II (RPB1) CTD (SER2) phosphorylation in HS68 cells", "assay": "Western blot for Rpb1 CTD", "assay_type": "cell-based", "details": "immunoblot, 3-1000 nM, 24 hours"}, "[2]": {"target": "T1, CDK5/p35 (Homo sapiens, UniProt Q00535)", "T1 construct": "purchased Nanosyn, Inc. (contract assay)", "T1 sequence (Q00535 whole entry)": "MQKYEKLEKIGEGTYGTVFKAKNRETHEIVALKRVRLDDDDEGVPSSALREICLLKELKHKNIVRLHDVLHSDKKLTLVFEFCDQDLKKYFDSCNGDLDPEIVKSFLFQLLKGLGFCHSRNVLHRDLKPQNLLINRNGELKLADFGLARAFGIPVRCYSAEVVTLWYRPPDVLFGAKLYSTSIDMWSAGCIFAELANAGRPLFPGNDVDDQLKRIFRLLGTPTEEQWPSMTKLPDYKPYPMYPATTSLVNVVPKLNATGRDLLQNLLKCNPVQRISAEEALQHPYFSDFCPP", "T1 sequence (Q15078 2-307 partner limits assumed)": "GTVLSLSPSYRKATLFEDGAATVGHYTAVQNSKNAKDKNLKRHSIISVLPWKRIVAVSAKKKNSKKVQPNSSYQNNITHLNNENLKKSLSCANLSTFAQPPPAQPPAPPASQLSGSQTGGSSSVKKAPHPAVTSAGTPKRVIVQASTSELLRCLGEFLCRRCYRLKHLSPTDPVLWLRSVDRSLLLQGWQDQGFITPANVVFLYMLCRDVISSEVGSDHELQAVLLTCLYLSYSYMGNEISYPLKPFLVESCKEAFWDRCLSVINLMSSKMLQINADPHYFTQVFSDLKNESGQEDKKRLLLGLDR", "assay_type": "biochemical", "details": "12-point dose response, singlicate, at Km for ATP"}, "[3]": {"target": "T2, TTK (Homo sapiens, UniProt P33981)", "T2 construct": "purchased DiscoveRx (KdELECT service)", "assay": "KdELECT Kd determination (DiscoveRx)", "assay_type": "binding", "details": "duplicate 11-point dose-response curves", "description": "(§1) G1T38 was profiled at DiscoveRx (Fremont, CA) using their KINOMEscan and scanMAX screening technology.\n(§2) Supplementary Table 1: G1T38 Kinase Interactions\n(§3) primary screen. Inhibitor binding constants (Kd values) were calculated from duplicate 11-point dose-response curves for\n(§4) (1 picture or pasted object on this page, not shown here)"}, "[4]": {"target": "T3, CDK4/ CyclinD3 (Homo sapiens, UniProt P11802)", "T3 construct": "purchased DiscoveRx (KdELECT service)", "assay": "KdELECT Kd determination (DiscoveRx)", "assay_type": "binding", "details": "duplicate 11-point dose-response curves", "description": "as §1, §2, §3, §4"}, "[5]": {"target": "T4, ULK2 (Homo sapiens, UniProt Q8IYT8)", "T4 construct": "purchased DiscoveRx (KdELECT service)", "assay": "KdELECT Kd determination (DiscoveRx)", "assay_type": "binding", "details": "duplicate 11-point dose-response curves", "description": "as §1, §2, §3, §4"}, "[6]": {"target": "T5, NEK10 (Homo sapiens, UniProt Q6ZWH5)", "T5 construct": "purchased DiscoveRx (KdELECT service)", "assay": "KdELECT Kd determination (DiscoveRx)", "assay_type": "binding", "details": "duplicate 11-point dose-response curves", "description": "as §1, §2, §3, §4"}, "[7]": {"target": "T6, CDK4/ CyclinD1 (Homo sapiens, UniProt P11802)", "T6 construct": "purchased DiscoveRx (KdELECT service)", "assay": "KdELECT Kd determination (DiscoveRx)", "assay_type": "binding", "details": "duplicate 11-point dose-response curves", "description": "as §1, §2, §3, §4"}, "[8]": {"target": "T7, PRKD3 (Homo sapiens, UniProt O94806)", "T7 construct": "purchased DiscoveRx (KdELECT service)", "assay": "KdELECT Kd determination (DiscoveRx)", "assay_type": "binding", "details": "duplicate 11-point dose-response curves", "description": "as §1, §2, §3, §4"}, "[9]": {"target": "T8, FLT3 (D835V) (Homo sapiens, UniProt P36888, D835V)", "T8 construct": "purchased DiscoveRx (KdELECT service)", "assay": "KdELECT Kd determination (DiscoveRx)", "assay_type": "binding", "details": "duplicate 11-point dose-response curves", "description": "as §1, §2, §3, §4"}, "[10]": {"target": "T9, PRKD2 (Homo sapiens, UniProt Q9BZL6)", "T9 construct": "purchased DiscoveRx (KdELECT service)", "T9 sequence (Q9BZL6 whole entry)": "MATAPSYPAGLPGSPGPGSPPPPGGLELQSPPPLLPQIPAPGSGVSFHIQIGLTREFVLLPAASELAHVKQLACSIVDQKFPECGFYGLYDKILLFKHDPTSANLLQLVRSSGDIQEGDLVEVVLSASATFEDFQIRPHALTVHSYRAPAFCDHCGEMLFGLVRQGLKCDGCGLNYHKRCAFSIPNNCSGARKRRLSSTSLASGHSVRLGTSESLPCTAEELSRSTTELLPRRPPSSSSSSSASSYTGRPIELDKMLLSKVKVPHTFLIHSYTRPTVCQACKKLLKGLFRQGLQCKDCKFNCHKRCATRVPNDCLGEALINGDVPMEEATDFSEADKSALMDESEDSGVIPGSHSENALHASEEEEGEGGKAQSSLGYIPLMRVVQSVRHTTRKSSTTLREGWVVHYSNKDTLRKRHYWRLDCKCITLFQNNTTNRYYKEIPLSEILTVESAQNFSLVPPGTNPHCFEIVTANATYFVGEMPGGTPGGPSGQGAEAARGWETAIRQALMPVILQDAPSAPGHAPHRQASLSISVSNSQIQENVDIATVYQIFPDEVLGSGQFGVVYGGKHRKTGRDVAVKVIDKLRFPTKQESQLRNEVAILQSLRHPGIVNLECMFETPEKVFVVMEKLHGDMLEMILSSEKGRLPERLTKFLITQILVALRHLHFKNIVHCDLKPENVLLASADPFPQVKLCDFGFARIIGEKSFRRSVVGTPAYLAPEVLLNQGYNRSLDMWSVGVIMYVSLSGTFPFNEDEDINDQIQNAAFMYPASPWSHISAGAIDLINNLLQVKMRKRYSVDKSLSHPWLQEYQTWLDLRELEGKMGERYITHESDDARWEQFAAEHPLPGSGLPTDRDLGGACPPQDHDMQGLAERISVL", "assay": "KdELECT Kd determination (DiscoveRx)", "assay_type": "binding", "details": "duplicate 11-point dose-response curves", "description": "as §1, §2, §3, §4"}, "[11]": {"target": "T10, SLK (Homo sapiens, UniProt Q9H2G2)", "T10 construct": "purchased DiscoveRx (KdELECT service)", "T10 sequence (Q9H2G2 whole entry)": "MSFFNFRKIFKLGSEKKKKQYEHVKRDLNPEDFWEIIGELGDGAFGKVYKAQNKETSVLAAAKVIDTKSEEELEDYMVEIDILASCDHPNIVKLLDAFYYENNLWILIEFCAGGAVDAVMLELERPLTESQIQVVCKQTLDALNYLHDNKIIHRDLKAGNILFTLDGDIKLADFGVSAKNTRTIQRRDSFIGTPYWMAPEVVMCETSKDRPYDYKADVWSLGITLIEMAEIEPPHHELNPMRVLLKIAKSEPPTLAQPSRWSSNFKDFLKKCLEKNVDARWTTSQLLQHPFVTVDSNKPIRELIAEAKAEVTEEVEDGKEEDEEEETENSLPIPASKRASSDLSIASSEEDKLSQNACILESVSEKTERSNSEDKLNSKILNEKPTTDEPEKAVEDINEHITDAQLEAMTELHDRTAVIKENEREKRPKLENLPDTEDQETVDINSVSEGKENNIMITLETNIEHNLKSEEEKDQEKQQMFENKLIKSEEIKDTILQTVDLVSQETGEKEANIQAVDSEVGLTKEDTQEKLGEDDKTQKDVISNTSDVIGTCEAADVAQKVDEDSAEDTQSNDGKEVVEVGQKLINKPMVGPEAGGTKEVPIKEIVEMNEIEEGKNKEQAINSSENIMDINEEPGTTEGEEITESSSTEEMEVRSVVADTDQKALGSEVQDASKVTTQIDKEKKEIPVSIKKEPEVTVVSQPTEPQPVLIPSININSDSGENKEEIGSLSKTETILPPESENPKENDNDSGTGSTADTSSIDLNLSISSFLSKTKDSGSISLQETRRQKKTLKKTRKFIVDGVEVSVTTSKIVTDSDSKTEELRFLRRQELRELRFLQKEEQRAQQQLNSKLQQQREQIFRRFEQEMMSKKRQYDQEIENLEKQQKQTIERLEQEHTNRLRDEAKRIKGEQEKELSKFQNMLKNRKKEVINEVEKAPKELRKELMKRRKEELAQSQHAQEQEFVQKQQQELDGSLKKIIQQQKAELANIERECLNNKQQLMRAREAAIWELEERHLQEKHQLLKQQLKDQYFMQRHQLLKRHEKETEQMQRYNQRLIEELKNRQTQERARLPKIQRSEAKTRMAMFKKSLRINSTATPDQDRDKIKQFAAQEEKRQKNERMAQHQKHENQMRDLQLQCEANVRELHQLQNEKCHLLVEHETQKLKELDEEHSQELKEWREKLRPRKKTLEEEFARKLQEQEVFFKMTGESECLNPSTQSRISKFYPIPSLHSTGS", "assay": "KdELECT Kd determination (DiscoveRx)", "assay_type": "binding", "details": "duplicate 11-point dose-response curves", "description": "as §1, §2, §3, §4"}, "[12]": {"target": "T11, SNARK (Homo sapiens, UniProt Q9H093)", "T11 construct": "purchased DiscoveRx (KdELECT service)", "T11 sequence (Q9H093 whole entry)": "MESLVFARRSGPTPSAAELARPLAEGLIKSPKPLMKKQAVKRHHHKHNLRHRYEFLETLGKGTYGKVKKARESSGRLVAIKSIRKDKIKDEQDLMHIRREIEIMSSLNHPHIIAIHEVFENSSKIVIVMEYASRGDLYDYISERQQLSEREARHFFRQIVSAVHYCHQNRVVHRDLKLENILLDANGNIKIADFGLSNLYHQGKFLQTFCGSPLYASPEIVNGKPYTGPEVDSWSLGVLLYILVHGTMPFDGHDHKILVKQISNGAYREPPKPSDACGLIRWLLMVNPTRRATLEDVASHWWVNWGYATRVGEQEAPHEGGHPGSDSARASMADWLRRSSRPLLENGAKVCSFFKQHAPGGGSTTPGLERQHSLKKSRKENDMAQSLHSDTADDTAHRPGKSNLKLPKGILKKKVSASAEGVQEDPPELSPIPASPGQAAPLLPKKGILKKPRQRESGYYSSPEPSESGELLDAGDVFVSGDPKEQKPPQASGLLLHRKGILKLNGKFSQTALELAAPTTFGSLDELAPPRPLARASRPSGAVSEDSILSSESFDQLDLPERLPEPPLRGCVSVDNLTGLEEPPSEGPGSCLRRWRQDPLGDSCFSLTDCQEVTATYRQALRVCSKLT", "assay": "KdELECT Kd determination (DiscoveRx)", "assay_type": "binding", "details": "duplicate 11-point dose-response curves", "description": "as §1, §2, §3, §4"}, "[13]": {"assay": "in vivo", "description": "Supplementary Table 2: Elimination Half-Lives of G1T38\nT1/2 (hrs) Mouse Rat Dog Human\nElimination half-lives (T1/2) were determined for G1T38 (in-house results and calculated as part of NCT02821624) and\nIn lower order species, mice and rats, values are similar between both compounds, however in dogs and […]"}, "[14]": {"target": "CDK2/Cyclin E (Homo sapiens, UniProt P24941)", "details": "read-out: IC50 CDK2/Cyclin E, Mean; 12-point dose response, singlicate, at Km for ATP", "quoted_text": "(§5) The assays were completed using microfluidic kinase detection technology (Caliper Assay Platform). The compounds were tested in 12-point dose response format in singlicate at the Km for ATP. Phosphoacceptor substrate peptide concentration used was 1 μM and Staurosporine was used as the reference compound for all assays."}, "[15]": {"target": "CDK2/Cyclin A (Homo sapiens, UniProt P24941)", "details": "read-out: IC50 CDK2/Cyclin A, Mean; 12-point dose response, singlicate, at Km for ATP", "quoted_text": "as §5"}}, "data": [{"smiles": "CC(C)N1CCN(c2ccc(Nc3ncc4cc5n(c4n3)C3(CCCCC3)CNC5=O)nc2)CC1.Cl.Cl", "note": "[G1T38, 2′-((5-(4-isopropylpiperazin-1-yl)pyridin-2-yl)amino)-7′, 8′dihydro-6′Hspiro[cyclohexane1,9′ pyrazino[1′,2′:1,5]pyrrolo[2,3-d]pyrimidin]-6′-one di-hydrochloride]", "values": [{"measurement": "RPB1 CTD (SER2) phosphorylation (CDK9/cyclin T function)", "setting": "[1]", "result": "no loss"}, {"measurement": "IC50", "setting": "[2]", "result": 832, "unit": "nM"}, {"measurement": "Kd", "setting": "[3]", "result": 4.2, "unit": "nM"}, {"measurement": "Kd", "setting": "[4]", "result": 0.05, "unit": "nM"}, {"measurement": "Kd", "setting": "[5]", "result": 5.5, "unit": "nM"}, {"measurement": "Kd", "setting": "[6]", "result": 0.18, "unit": "nM"}, {"measurement": "Kd", "setting": "[7]", "result": 0.15, "unit": "nM"}, {"measurement": "Kd", "setting": "[8]", "result": 5, "unit": "nM"}, {"measurement": "Kd", "setting": "[9]", "result": 6.5, "unit": "nM"}, {"measurement": "Kd", "setting": "[10]", "result": 10, "unit": "nM"}, {"measurement": "Kd", "setting": "[11]", "result": 11, "unit": "nM"}, {"measurement": "Kd", "setting": "[12]", "result": 0.69, "unit": "nM"}, {"measurement": "half-life", "setting": "[13]; dog", "result": "10.5 to 14.7", "unit": "h"}, {"measurement": "half-life", "setting": "[13]; mouse", "result": "2.4 to 5.1", "unit": "h"}, {"measurement": "IC50", "setting": "[14]", "result": 3600, "unit": "nM"}, {"measurement": "IC50", "setting": "[15]", "result": 1500, "unit": "nM"}]}]}
